The values that follow come from patent US10537541B2, “Treatment of focal segmental glomerular sclerosis (FSGS) using therapeutically effective oral doses of 10-nitro-9(E)-octadec-9-enoic acid” (Complexa, Inc., priority 2015, dated 2020).

Experiment [1] has as its system deoxycorticosterone acetate (DOCA)/salt-induced model of FSGS. The experiment in a line: DOCA salt study: RT-PCR analysis of kidney gene expression. Type of experiment: in vivo, mice (129/sv strain). The following applies: DOCA/salt mice kidney; for Nephrin gene expression / Podocin gene expression: normalized to 18S, fold changes to control group, mean ± SEM; for gene expression of MCP-1, osteopontin, collagen III, fibronectin and PAI-1 (mRNA, qRT-PCR): 4 weeks. The protocol: Induction of model: Male mice (129/sv strain) were purchased from Taconic Labs. The animals were uninephrectomized (Unx) at 6 weeks of age by the vendor and shipped one week after surgery. At 2 weeks post Unx, a DOCA or placebo pellet (21-day release pellets, 50 mg/pellet, Innovative Research of America, Sarasota, Fla.) was implanted s.c. All mice were then placed on a semisynthetic diet which contained a moderate fat content and a low phytoestrogen/anti-oxidant level, which approximates a normal human diet (4). A second DOCA or placebo pellet was implanted three weeks later.
Treatment: Mice were treated with placebo, 10-nitro-9(E)-octadec-9-enoic acid at a dose of 2.5 and 12.5 mg/kg, or enalapril (standard of care) for 4 weeks by oral gavage starting 2 weeks after the first DOCA implantation. One percent NaCl in tap water was given to each group except the sham control group. Body weight was measured weekly, and doses were readjusted based on the current body weight. Urine and blood samples were collected prior to treatment and at week 2 and 4 of treatment. Mice were terminated at week 4. Data is presented as the mean+SEM for the number of animals listed in each group.
RT-PCR Analysis of Gene Expression: A slice of kidney from each mouse was placed in Trizol solution (Invitrogen) immediately after harvesting and stored at −80° C. until analysis. Tissues were homogenized using a bead mill in 0.5 ml of Trizol solution and total RNA was extracted with chloroform (Sigma) and purified using standard RNeasy mini kit (Qiagen), with on column DNase 1 (Qiagen) digestion to avoid non-specific fluorescence emission derived from the recognition of contaminating genomic DNA by the probe, according to manufacturer's recommendation. RNA samples were eluted in 30 μl of nuclease-free water and quantified using a Nanodrop. cDNA was generated from 2 μg of RNA by using Clontech Sprint PowerScript reagents according to manufacturer's protocol. Fluorogenic probes specific for genes assayed in the report were purchased from Applied Biosystems. PCR amplification and analysis of PCR reaction were performed and monitored using an ABI Prism 7900HT Sequence Detection System (TaqMan, Perkin-Elmer Applied Biosystem). Data analysis was carried out by using the Sequence Detection Systems v2.3 program (Applied Biosystems). For each cDNA sample the Ct value of each target sequence was normalized to reference gene (Ribosomal RNA-18S), and shown as fold changes to control group. Statistical analyses for gene expression data was performed using a two-tailed Student's t-test.

Another experiment deals with db/db model. The following applies: given by infusion; cited from earlier work.

Each structure is given as a SMILES string.

With `CCCCCCCC/C(=C\CCCCCCCC(=O)O)[N+](=O)[O-]` [CXA-10, 10-nitro-9(E)-octadec-9-enoic acid], the Nephrin gene expression in experiment [1] (2.5 mpk) worked out at 1.264 ± 0.0789; in experiment [1] (12.5 mpk) it was 1.313 ± 0.15. The results for the Podocin gene expression in experiment [1] (2.5 mpk) and in experiment [1] (12.5 mpk) were 1.077 ± 0.123 and 1.117 ± 0.084, respectively. The “gene expression of MCP-1, osteopontin, collagen III, fibronectin and PAI-1 (mRNA, qRT-PCR)” value is on record as “neither the high dose 10-nitro-9(E)-octadec-9-enoic acid nor enalapril had an effect” in experiment [1] (high dose 12.5 mg/kg p.o. QD) and “inhibited these genes” in experiment [1] (low dose 2.5 mg/kg p.o. QD). In addition, in the experiment on db/db model, the podocyte number entry is given as “increase in podocyte number”.
